Assay results published in US12622901B2, “Compounds for tau protein degradation” (Dana-Farber Cancer Institute, Inc., priority 2017, dated 2026).
“Also recorded” adds a separate entry of the source. Like-named read-outs stand apart in the source and are kept apart here.

Assays:
tau protein [1] = target: T1, tau protein (Homo sapiens, UniProt P10636, A469T); assay: Tau degradation assay (western blot) in human tau-A152T neurons; format: cell-based
T1 construct: cultured human differentiated frontotemporal lobar dementia (FTD) neurons; endogenous in cells; host or cells: human differentiated FTD neurons, tau-A152T (line 19-5-RC6)
Procedure: Example compounds 1-12 were evaluated for their ability to degrade tau protein in cultured human differentiated frontotemporal lobar dementia (FTD) neurons. […] For each condition, 1 well of differentiated neuronal cells (6 well-plate) was washed and collected in PBS, pelleted and lysed in RIPA buffer (Boston Bio-Products) with 2% SDS (Sigma), protease inhibitors (Roche Complete Mini tablets), and phosphatase inhibitors (Sigma), followed by sonication in a water sonicator (Bransonic Ultrasonic Baths, Thomas Scientific) for 5 min, and centrifugation at 20,000 g for 15 min. Supernatants were transferred to new tubes, total protein concentration was quantified with the Pierce BCA Protein Assay Kit (Thermo), and SDS-PAGE gels were loaded with 10 μg total protein per well (pre-boiled samples). Western blots were performed with the Novex NuPAGE SDS-PAGE Gel System (Invitrogen). All samples were resolved in 7% Tris-Acetate gels with Tris-Acetate running buffer (Invitrogen). Blots were probed with antibodies against total tau (TAU5) and phosphosrylated tau (Ser396), along with β-actin as a loading control; followed by corresponding HRP-linked secondary antibodies (Cell Signaling Technology), and SuperSignal West Pico Chemiluminescent Substrate (Thermo) detection. Membranes were exposed to autoradiographic film (LabScientific) and films were scanned using an Epson Perfection V800 Photo Scanner. Protein band intensities (pixel mean intensity) were quantified using Adobe Photoshop CS5 Histogram function. Whereas the vehicle alone (DMSO) had no effect on tau, varying degrading activity was observed amongst the compounds, however with overall similar relative levels of degrading activity between tau-A152T neurons and tau-P301L neurons. Compounds were added at the doses indicated of either 0.1, 1, 5, or 10 μM.
(§1) Four-week differentiated neurons, both non-mutant (8330-8) and tau-A152T (19-5-RC6) were employed. The neurons were treated with T807 for 24 hours (at 10 μg/mL=59.4 μM). One well of differentiated neuronal cells (6 well-plate, treated or untreated) was washed and collected in PBS, pelleted and directly lysed in 200 μL of Sample Buffer (New England Biolabs) supplemented with 3X DTT, boiled for 15 min and 10 μL of each lysate was run by SDS-PAGE in a 4-12% Bis-Tris Gel, with MOPS running buffer. Blots were probed with antibodies to total tau (DA9) and phosphorylated tau (Ser396, PHF1, AT8) along with GAPDH as a loading control.
Example compounds 2-5 were reevaluated for their ability to degrade tau protein in human FTD neurons as well as evaluate their effect on E3 ubiquitin ligases CRBN, VHL, and CHIP (FIG. 4A-E). For each control and treatment, 1 well of differentiated neuronal cells (6 well-plate) was washed and collected in PBS, pelleted and lysed in RIPA buffer (Boston Bio-Products) with 2% SDS (Sigma), protease inhibitors (Roche Complete Mini tablets), and phosphatase inhibitors (Sigma), followed by sonication in a water sonicator (Bransonic Ultrasonic Baths, Thomas Scientific) for 5 min, and centrifugation at 20,000 g for 15 min. Supernatants were transferred to new tubes, total protein concentration was quantified with the Pierce BCA Protein Assay Kit (Thermo), and SDS-PAGE gels were loaded with 10 μg total protein per well (pre-boiled samples). […] Protein band intensities (pixel mean intensity) were quantified using Adobe Photoshop CS5 Histogram function. […]

A152T neurons [2] = assay: Neuronal viability / rescue of stress vulnerability to β-amyloid (1-42) peptide; conditions: A152T neurons differentiated 8 weeks; compound alone; FIG. 7
tau protein [3] = target: T2, tau protein (Homo sapiens, UniProt P10636, P618L); assay: Tau degradation assay (western blot) in human tau-P301L neurons; format: cell-based
T2 construct: cultured human differentiated frontotemporal lobar dementia (FTD) neurons; endogenous in cells; host or cells: human differentiated FTD neurons, tau-P301L
Procedure: Example compounds 1-12 were evaluated for their ability to degrade tau protein in cultured human differentiated frontotemporal lobar dementia (FTD) neurons. […] For each condition, 1 well of differentiated neuronal cells (6 well-plate) was washed and collected in PBS, pelleted and lysed in RIPA buffer (Boston Bio-Products) with 2% SDS (Sigma), protease inhibitors (Roche Complete Mini tablets), and phosphatase inhibitors (Sigma), followed by sonication in a water sonicator (Bransonic Ultrasonic Baths, Thomas Scientific) for 5 min, and centrifugation at 20,000 g for 15 min. Supernatants were transferred to new tubes, total protein concentration was quantified with the Pierce BCA Protein Assay Kit (Thermo), and SDS-PAGE gels were loaded with 10 μg total protein per well (pre-boiled samples). Western blots were performed with the Novex NuPAGE SDS-PAGE Gel System (Invitrogen). […] Protein band intensities (pixel mean intensity) were quantified using Adobe Photoshop CS5 Histogram function. […]
Example compounds 2-5 were reevaluated for their ability to degrade tau protein in human FTD neurons as well as evaluate their effect on E3 ubiquitin ligases CRBN, VHL, and CHIP (FIG. 4A-E). […] Supernatants were transferred to new tubes, total protein concentration was quantified with the Pierce BCA Protein Assay Kit (Thermo), and SDS-PAGE gels were loaded with 10 μg total protein per well (pre-boiled samples). […]

tau protein [4] = target: T3, tau protein (Homo sapiens, UniProt P10636); assay: Tau degradation assay (western blot) in non-mutant control human neurons; format: cell-based
T3 construct: Four-week differentiated neurons, both non-mutant (8330-8) and tau-A152T (19-5-RC6) were employed; endogenous in cells; host or cells: human differentiated non-mutant control neurons (8330-8, 8330-8-RC1, CTR2-L17-RC2)
Procedure: as §1
Example compounds 2-5 were again evaluated in tau degradation assays in non-mutant control, A152T and P301L neurons (6-week differentiated). Non-mutant neurons were employed as a negative control since derivatives of T807 should not recognize non-disease states of tau based upon how the series was identified, using selection for binding to pathological forms of tau in post-mortem brain lysates and tissue slices. […] Supernatants were transferred to new tubes, total protein concentration was quantified with the Pierce BCA Protein Assay Kit (Thermo), and SDS-PAGE gels were loaded with 10 μg total protein per well (pre-boiled samples). […] Protein band intensities (pixel mean intensity) were quantified using Adobe Photoshop CS5 Histogram function. […]

A152T neurons [5] = system: A152T neurons

T3 sequence (P10636 1-441 isoform P10636-8): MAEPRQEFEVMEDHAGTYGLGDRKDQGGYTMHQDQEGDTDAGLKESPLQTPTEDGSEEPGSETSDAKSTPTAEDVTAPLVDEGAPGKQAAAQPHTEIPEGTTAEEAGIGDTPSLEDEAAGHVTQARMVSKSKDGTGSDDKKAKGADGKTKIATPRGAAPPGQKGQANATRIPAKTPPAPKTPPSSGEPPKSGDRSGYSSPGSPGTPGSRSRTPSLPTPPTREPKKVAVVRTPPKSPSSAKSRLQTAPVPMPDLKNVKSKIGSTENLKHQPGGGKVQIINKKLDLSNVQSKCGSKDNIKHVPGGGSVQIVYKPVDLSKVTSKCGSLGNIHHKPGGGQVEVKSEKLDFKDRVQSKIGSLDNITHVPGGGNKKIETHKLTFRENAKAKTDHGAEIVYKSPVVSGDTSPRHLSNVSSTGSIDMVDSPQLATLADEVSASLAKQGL
T1 sequence (P10636 1-441 isoform P10636-8 A152T): as the sequence (P10636 1-441 isoform P10636-8) above, with A152T counted along it
T2 sequence (P10636 1-441 isoform P10636-8 P301L): as the sequence (P10636 1-441 isoform P10636-8) above, with P301L counted along it

For `O=C(CCc1ccc2c(c1)[nH]c1ccncc12)NCCOCCNc1cccc2c1C(=O)N(C1CCC(=O)NC1=O)C2=O` (stereo not shown) [Compound 2, N-(2-(2-((2-(2,6-dioxopiperidin-3-yl)-1,3-dioxoisoindolin-4-yl)amino)ethoxy)ethyl)-3-(5H-pyrido[4,3-b]indol-7-yl)propanamide], the “dose-dependency of effect on tau” value (tau protein [1]; 6-week differentiated A152T neurons, treatment for 24 hours, FIG. 6) was “dose dependent effect on tau” and the “effect on neuronal viability” value (A152T neurons [2]) was “no effect on neuronal viability”.

In the case of `Fc1ccc(-c2ccc3c(c2)[nH]c2ccncc23)cn1` [Compound T807], the “effect on total tau and phospho-tau (S396) levels” value (shortened to “effect … (S396) levels”) (tau protein [1]; A152T neurons, 6-week differentiated, 1 μM, FIG. 5) is reported as “no effect”, the “effect on total tau and phosphorylated tau levels” value (tau protein [1]; tau-A152T (19-5-RC6) neurons, four-week differentiated, 24 h at 10 μg/mL=59.4 μM, FIG. 3) is reported as “No significant tau lowering activity; also recorded: no effect on tau levels and did not degrade tau” and the “effect … (S396) levels” value (tau protein [3]; P301L neurons, 6-week differentiated, 1 μM, FIG. 5) is reported as “no effect”. The “effect on total tau and phosphorylated tau levels” value (tau protein [4]; non-mutant (8330-8) neurons, four-week differentiated, 24 h at 10 μg/mL=59.4 μM, FIG. 3) was “No significant tau lowering activity; also recorded: no effect on tau levels and did not degrade tau” and the “effect … (S396) levels” value (tau protein [4]; non-mutant control neurons, 6-week differentiated, 1 μM, FIG. 5) was “no effect”.

In the case of `Nc1cccc2c1CN(C1CCC(=O)NC1=O)C2=O` (stereo not shown) [Lenalidomide], the “effect on total tau and hyperphosphorylated tau levels” value (tau protein [1]; tau-A152T neurons, 5-week differentiated, 24 h treatment, 0.1, 1, 5 or 10 μM (lenalidomide 1 or 10 μM), TAU5, pSer396) is reported as “no effect on tau levels” and the “effect on total tau and hyperphosphorylated tau levels” value (tau protein [3]; tau-P301L neurons, 8-week differentiated, 24 h treatment, 0.1, 1, 5 or 10 μM (lenalidomide 1 or 10 μM), TAU5, pSer396) is reported as “no effect on tau levels”.

With “N-(17-(2-((2-(2,6-dioxopiperidin-3-yl)-1,3-dioxoisoindolin-4-yl)amino)-3,6,9,12,15-pentaoxaheptadecyl)-3-(5H-pyrido[4,3-b]indol-7-yl)propanamide [Compound 5]” the “effect on neuronal viability” value (A152T neurons [5]) was “no effect on neuronal viability”.
